Laboratory results reported in patent publication US20240185961A1, “DRUG MATERIAL INTERACTIONS USING QUARTZ CRYSTAL MICROBALANCE SENSORS” (Janssen Biotech, Inc., priority 2021, published 2024).

Legend:
Type in all cases: physicochemical
[1] = QCM-D adsorption to PES sensor surface; details: protein 3 formulation, PS20-poor solution, average, 95% CI±5.2%
Method: (§1) The experiments detailed below were informed using quartz sensors coated with various surface compositions such as PVC, PE, PES, PVDF, PC, or PP. These sensors can be pre and post-run cleaned, for example, by way of a 30 min soak in 1% Deconex 11 Solution, a minimum 2 hr soak in DI water (usually overnight), followed by a rinse with DI water and 99% ethanol three times and then blown dry by medical grade nitrogen gas. The sensors were then inserted into a QCM unit as was sample solution, diluent (e.g., NS), and water. Runs were configured and data and procedures were collected. Experimental data was then transformed from frequency to mass data using, for example, the above equations. […]
(§2) In one experimental run, over 60 sensorgrams (i.e., the outputs of the QCM-D instruments) were analyzed and transformed from frequency to mass adsorption data in the aforementioned example. Here the mass adsorbed during the sample period was of primary interest, and the mass during this period was measured by subtracting the average mass recorded and calculated during the diluent period where an ionic liquid had effect on resonance (period 2 above/520 in FIG. 5) from the average mass shift recorded and calculated during the sample period (period 3 above/530 in FIG. 5). […]

[2] = QCM-D adsorption, PS20 only runs, PVC and PES sensor surfaces pooled; details: all at the same concentration, protein 3 experiments, 95% CI±19.77 ng/sq cm
Method: as §1, §2

[3] = QCM-D adsorption to PVC sensor surface; details: protein 3 formulation, PS20-poor solution, average, 95% CI±33.7%
Method: as §1, §2

polysorbate 20 [PS20]
PS20 contribution to mass of layer at the surface [1]: 12.22% | average mass contribution, PS20 only runs [2]: 40.20 ng/sq cm | PS20 contribution to mass of layer at the surface [3]: 35.56%
